Tests used:
Type in all cases: cell-based
full-length TIPARP = molecular target: T1, full-length TIPARP (Homo sapiens, UniProt Q7Z3E1); experiment: NanoBRET probe displacement assay (Probe A) in live 293T cells, full-length TIPARP; settings: NanoBRET displacement of Probe A, NanoLuc-tagged full-length TIPARP in live 293T cells
T1 construct: 1-657 of; expressed in transfected cells; host or cells: 293T cells (ATCC), pcDNA3.1
T1 sequence (Q7Z3E1 1-657): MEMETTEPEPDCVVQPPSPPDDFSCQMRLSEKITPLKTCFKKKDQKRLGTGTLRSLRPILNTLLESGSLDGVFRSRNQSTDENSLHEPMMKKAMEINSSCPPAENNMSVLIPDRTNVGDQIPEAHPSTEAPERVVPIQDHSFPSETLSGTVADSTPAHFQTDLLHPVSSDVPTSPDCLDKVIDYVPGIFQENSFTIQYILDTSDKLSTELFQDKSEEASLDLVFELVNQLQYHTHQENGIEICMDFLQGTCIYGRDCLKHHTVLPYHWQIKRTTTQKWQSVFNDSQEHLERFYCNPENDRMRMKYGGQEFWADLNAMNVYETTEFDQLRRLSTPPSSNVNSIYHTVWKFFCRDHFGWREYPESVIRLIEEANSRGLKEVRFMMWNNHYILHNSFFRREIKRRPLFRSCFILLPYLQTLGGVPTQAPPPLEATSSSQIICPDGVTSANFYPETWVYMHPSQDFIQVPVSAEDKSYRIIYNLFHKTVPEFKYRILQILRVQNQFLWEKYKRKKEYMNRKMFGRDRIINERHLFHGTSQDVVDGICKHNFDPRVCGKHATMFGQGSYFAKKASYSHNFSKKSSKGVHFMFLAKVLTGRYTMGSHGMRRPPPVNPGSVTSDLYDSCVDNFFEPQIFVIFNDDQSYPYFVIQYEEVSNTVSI
Description: (§1) MonoPARP genes from Table 5 were cloned into the pcDNA3.1-mammalian expression vector as a NanoLuc fusion with NanoLuc on the N- or C-terminus as indicated. The sequence of the NanoLuc tag is as follows: [table] Displacement of a fluorescently-labeled compound Probe A binding to NanoLuc-tagged monoPARP enzymes was measured in live cells using a bioluminescence resonance energy transfer (NanoBRET) assay. TIPARP, PARP10, PARP12 or PARP14 fused to a NanoLuc tag were overexpressed in 293T cells (ATCC) using the plasmids described herein. Plasmid DNA and empty vector DNA were added to phenol red free OptiMEM (Thermo Fisher) as shown in Table 6 in a total volume of 2.456 mL. 157 μL of Fugene HD (Promega) was added to the DNA mixture and allowed to incubate 5 min at 25° C. [table] Next, 2.375 mL of the plasmid-Fugene mixture were added to 20 million 293T cells in DMEM (Thermo Fisher) supplemented with 10% FBS (VWR). The transfection was incubated for 24 h at 37° C. in an incubator containing air supplemented with 5% CO2. The cells were resuspended in phenol red free OptiMEM media. 40 μL of cells were then added to white polystyrene 384-well non-binding surface microplate (Corning). […] Filtered luminescence was measured on an Envision (Perkin Elmer) equipped with a dual 585 nm mirror, 460±40 nm bandpass filter (donor) and 610±50 nm longpass filter (acceptor). […]

catalytic domain TIPARP = molecular target: T2, catalytic domain TIPARP (Homo sapiens, UniProt Q7Z3E1); experiment: NanoBRET probe displacement assay (Probe A) in live 293T cells, catalytic domain TIPARP; settings: NanoBRET displacement of Probe A, NanoLuc-tagged catalytic domain TIPARP in live 293T cells
T2 construct: 456-657 of; expressed in transfected cells; host or cells: 293T cells (ATCC), pcDNA3.1
T2 sequence (Q7Z3E1 456-657): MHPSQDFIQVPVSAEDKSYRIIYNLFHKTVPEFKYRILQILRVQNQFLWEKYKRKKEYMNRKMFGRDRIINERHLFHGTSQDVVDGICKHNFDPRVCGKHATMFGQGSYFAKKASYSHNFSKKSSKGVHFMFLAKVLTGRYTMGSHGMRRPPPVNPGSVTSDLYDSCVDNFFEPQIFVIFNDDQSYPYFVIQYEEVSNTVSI
Description: as §1

PARP12 = molecular target: T3, PARP12 (Homo sapiens, UniProt Q9H0J9); experiment: NanoBRET probe displacement assay (Probe A) in live 293T cells, PARP12; design: 489-684 of; expressed in transfected cells; host or cells: 293T cells (ATCC), pcDNA3.1; settings: NanoBRET displacement of Probe A, NanoLuc-tagged PARP12 in live 293T cells
T3 sequence (Q9H0J9 489-684): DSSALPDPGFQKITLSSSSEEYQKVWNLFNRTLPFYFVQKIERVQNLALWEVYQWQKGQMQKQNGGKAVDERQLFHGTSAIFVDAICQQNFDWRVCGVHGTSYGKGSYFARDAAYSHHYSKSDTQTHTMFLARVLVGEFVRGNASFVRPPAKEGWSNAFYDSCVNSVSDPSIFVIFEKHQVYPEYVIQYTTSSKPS
Description: as §1

PARP10 = molecular target: T4, PARP10 (Homo sapiens, UniProt Q53GL7); experiment: NanoBRET probe displacement assay (Probe A) in live 293T cells, PARP10; settings: NanoBRET displacement of Probe A, NanoLuc-tagged PARP10 in live 293T cells
T4 sequence (Q53GL7 808-1025): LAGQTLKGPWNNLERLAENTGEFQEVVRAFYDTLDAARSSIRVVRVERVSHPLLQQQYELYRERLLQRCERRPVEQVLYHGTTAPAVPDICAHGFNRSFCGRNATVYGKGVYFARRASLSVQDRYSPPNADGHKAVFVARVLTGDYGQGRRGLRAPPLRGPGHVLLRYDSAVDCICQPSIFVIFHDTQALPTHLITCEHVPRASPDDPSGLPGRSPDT
Description: as §1

IC50 (full-length TIPARP) [nM]	IC50 (catalytic domain TIPARP) [nM]	IC50 (PARP12) [nM]	IC50 (PARP10) [nM]	Compound
4	7	170		N#Cc1ccc(N2CCN(C(=O)c3cccc(OC[C@@H]4c5ccccc5CN4c4cn[nH]c(=O)c4C(F)(F)F)c3)CC2)nc1 [Compound B, 6-[4-[(3-[[(1S)-2-[6-Oxo-5-(trifluoromethyl)-1,6-dihydropyridazin-4-yl]-2,3-dihydro-1H-isoindol-1-yl]methoxy]phenyl)carbonyl]piperazin-1-yl]pyridine-3-carbonitrile]
			4	CC(=O)N1CCC(Oc2ccc3c(n2)CN(c2cn[nH]c(=O)c2C(F)(F)F)C3)CC1 [Compound C, 5-[2-[(1-Acetylpiperidin-4-yl)oxy]-5H,6H,7H-pyrrolo[3,4-b]pyridin-6-yl]-4-(trifluoromethyl)-2,3-dihydropyridazin-3-one]

Source: patent publication US11293927B2, “Screening methods for PARP modulators” (Ribon Therapeutics, Inc., priority 2018, dated 2022)
